# Test results: US20100261708A1 (BOEHRINGER INGELHEIM INTERNATIONAL GMBH, priority 2007, published 2010)
# Target: T1, human CB2R (Homo sapiens, UniProt P34972)
# T1 construct: host or cells: CHO cells
# Experiment: CB2R mediated modulation of cAMP synthesis
# Assay type: cell-based
# Conditions: not given
# Method: B. CB2R Mediated Modulation of cAMP Synthesis:
# Compounds of the invention were evaluated for their CB2 agonist or inverse agonistic activity in accordance with the following experimental method.
# CHO cells expressing human CB2R (Euroscreen) were plated at a density of 5000 cells per well in 384 well plates and incubated overnight at 37° C. After removing the media, the cells were treated with test compounds diluted in stimulation buffer containing 1 mM IBMX, 0.25% BSA and 10 uM Forskolin. The assay was incubated for 30 minutes at 37° C. Cells were lysed and the cAMP concentration was measured using DiscoverX-XS cAMP kit, following the manufacturer's protocol. In this setting, agonists will decrease forskolin induced production of cAMP while inverse agonists will further increase forskolin induced production of cAMP. EC50 of agonists were calculated as follows. The maximal amount of cAMP produced by forskolin compared to the level of cAMP inhibited by 1 uM CP55940 is defined as 100%. […] Data was analyzed using a four-parameter logistic model. (Model 205 of XLfit 4.0).
# T1 sequence (P34972 whole entry): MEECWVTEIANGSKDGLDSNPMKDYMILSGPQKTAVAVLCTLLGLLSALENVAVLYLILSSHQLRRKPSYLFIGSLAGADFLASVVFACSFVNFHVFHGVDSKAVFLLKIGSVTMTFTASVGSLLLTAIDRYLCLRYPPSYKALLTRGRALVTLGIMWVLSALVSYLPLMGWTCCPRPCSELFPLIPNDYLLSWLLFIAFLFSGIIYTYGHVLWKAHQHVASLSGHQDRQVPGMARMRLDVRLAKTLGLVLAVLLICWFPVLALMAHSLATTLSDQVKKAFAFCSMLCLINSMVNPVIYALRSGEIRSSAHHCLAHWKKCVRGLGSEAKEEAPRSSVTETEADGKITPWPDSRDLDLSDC
row,Compound,EC50
1,"Cc1nc(NC(=O)N2CCCN(c3ncc(C(F)(F)F)cc3Cl)CC2)sc1C(C)(C)C [Example 14, 4-(3-Chloro-5-trifluoromethyl-pyridin-2-yl)-[1,4]diazepane-1-carboxylic acid (5-tert-butyl-4-methyl-thiazol-2-yl)-amide]",0.94 nM
2,O=C(C1CCOCC1)N1CCCN(c2nc3cc(C(F)(F)F)ccc3s2)CC1 [Example 65],35 nM
3,"CCc1cnc(N2CCCN(C(=O)Nc3cc(C(C)(C)C)on3)CC2)nc1 [Example 79, 4-(5-Ethyl-pyrimidin-2-yl)-[1,4]diazepane-1-carboxylic acid (5-tert-butyl-isoxazol-3-yl)-amide]",6 nM
4,"CC(C)(C)c1ccc2oc(N3CCCN(C(=O)c4ccc(Cl)cc4)CC3)nc2c1 [Example 3, [4-(5-tert-Butyl-benzooxazol-2-yl)-[1,4]diazepan-1-yl]-(4-chloro-phenyl)-methanone]",0.14 nM
5,"CC(C)(C)c1cc(NC(=O)N2CCCN(c3ncc(Cl)cc3Cl)CC2)no1 [Example 21, 4-(3,5-Dichloro-pyridin-2-yl)-[1,4]diazepane-1-carboxylic acid (5-tert-butyl-isoxazol-3-yl)-amide]",44 nM
6,"O=C(c1ccc(Cl)cc1)N1CCCN(c2nc3ccc(Cl)cc3s2)CC1 [Example 9, [4-(6-Chloro-benzothiazol-2-yl)-[1,4]diazepan-1-yl]-(4-chloro-phenyl)-methanone]",30 nM

# Same assay, conditions: read-out: CB2 CAMP @EC50
row,Compound,EC50
1,"FC(F)(F)c1cnc(N2CCCN(c3nc4cc(C(F)(F)F)ccc4o3)CC2)c(Cl)c1 [Example 49, 2-[4-(3-Chloro-5-trifluoromethyl-pyridin-2-yl)-[1,4]diazepan-1-yl]-5-trifluoromethyl-benzooxazole]",54 nM
2,"Cc1ccc(C)c2sc(N3CCCN(C(=O)C4CCOCC4)CC3)nc12 [Example 46, [4-(4,7-Dimethyl-benzothiazol-2-yl)-[1,4]diazepan-1-yl]-(tetrahydro-pyran-4-yl)-methanone]",445 nM
3,"Cc1c(Cl)ccc2sc(N3CCCN(C(=O)N4CCOCC4)CC3)nc12 [Example 38, [4-(5-Chloro-4-methyl-benzothiazol-2-yl)-[1,4]diazepan-1-yl]-morpholin-4-yl-methanone]",204 nM
4,"N#Cc1cnc(N2CCCN(C(=O)C3CCOCC3)CC2)s1 [Example 34, 2-[4-(Tetrahydro-pyran-4-carbonyl)-[1,4]diazepan-1-yl]-thiazole-5-carbonitrile]",40 nM
5,"Cc1cc(Cl)cc2sc(N3CCCN(C(=O)C4CCOCC4)CC3)nc12 [Example 42, [4-(6-Chloro-4-methyl-benzothiazol-2-yl)-[1,4]diazepan-1-yl]-(tetrahydro-pyran-4-yl)-methanone]",221 nM
6,"CC(C)(C)c1cc(NC(=O)N2CCCN(c3nccc(C(F)(F)F)n3)CC2)no1 [Example 23, 4-(4-Trifluoromethyl-pyrimidin-2-yl)-[1,4]diazepane-1-carboxylic acid (5-tert-butyl-isoxazol-3-yl)-amide]",333 nM
7,"Cc1csc2ncnc(N3CCCN(C(=O)N4CCOCC4)CC3)c12 [Example 86, [4-(5-Methyl-thieno[2,3-d]pyrimidin-4-yl)-[1,4]diazepan-1-yl]-morpholin-4-yl-methanone]",45.2 nM
8,"Cc1ccnc(N2CCCN(C(=O)Nc3cc(C(C)(C)C)on3)CC2)n1 [Example 81, 4-(4-Methyl-pyrimidin-2-yl)-[1,4]diazepane-1-carboxylic acid (5-tert-butyl-isoxazol-3-yl)-amide]",344 nM
9,"O=C(N1CCCN(c2nc3ccccc3[nH]2)CC1)N1CCS(=O)(=O)CC1 [Example 56, [4-(1H-Benzoimidazol-2-yl)-[1,4]diazepan-1-yl]-(1,1-dioxo-1λ^6-thiomorpholin-4-yl)-methanone]",327 nM
10,"O=C(C1CCOCC1)N1CCCN(c2nc3ccc(Cl)cc3o2)CC1 [Example 70, [4-(6-Chloro-benzooxazol-2-yl)-[1,4]diazepan-1-yl]-(tetrahydro-pyran-4-yl)-methanone]",180 nM
11,"O=C(C1CCOCC1)N1CCCN(c2nc(-c3ccccc3)cs2)CC1 [Example 53, [4-(4-Phenyl-thiazol-2-yl)-[1,4]diazepan-1-yl]-(tetrahydro-pyran-4-yl)-methanone]",217 nM
12,"Cc1ccc(Cl)c2sc(N3CCCN(C(=O)C4CCOCC4)CC3)nc12 [Example 43, [4-(7-Chloro-4-methyl-benzothiazol-2-yl)-[1,4]diazepan-1-yl]-(tetrahydro-pyran-4-yl)-methanone]",114 nM
13,"CC(C)(C)c1ccc2oc(N3CCCN(C(=O)C4CCC(F)(F)CC4)CC3)nc2c1 [Example 4, [4-(5-tert-Butyl-benzooxazol-2-yl)-[1,4]diazepan-1-yl]-(4,4-difluoro-cyclohexyl)-methanone]",0.017 nM
14,"CC(C)(C)SCCNC(=O)N1CCCN(c2ncc(C(F)(F)F)cc2Cl)CC1 [Example 15, 4-(3-Chloro-5-trifluoromethyl-pyridin-2-yl)-[1,4]diazepane-1-carboxylic acid (2-tert-butylsulfanyl-ethyl)-amide]",21 nM
15,"O=C(C1CCOCC1)N1CCCN(c2nc3cc(-c4ccccc4)ccc3o2)CC1 [Example 71, [4-(5-Phenyl-benzooxazol-2-yl)-[1,4]diazepan-1-yl]-(tetrahydro-pyran-4-yl)-methanone]",77 nM
16,"Cc1csc(NC(=O)N2CCCN(c3ncc(C(F)(F)F)cc3Cl)CC2)n1 [Example 6, 4-(3-Chloro-5-trifluoromethyl-pyridin-2-yl)-[1,4]diazepane-1-carboxylic acid (4-methyl-thiazol-2-yl)-amide]",30 nM
17,"Cn1nc(C(C)(C)C)cc1NC(=O)N1CCCN(c2ncc(Cl)cc2Cl)CC1 [Example 28, 4-(3,5-Dichloro-pyridin-2-yl)-[1,4]diazepane-1-carboxylic acid (5-tert-butyl-2-methyl-2H-pyrazol-3-yl)-amide]",500 nM
18,"Cc1ccc(Cl)c2sc(N3CCCN(C(=O)N4CCOCC4)CC3)nc12 [Example 39, [4-(7-Chloro-4-methyl-benzothiazol-2-yl)-[1,4]diazepan-1-yl]-morpholin-4-yl-methanone]",2 nM
19,"Cc1c(Cl)ccc2sc(N3CCCN(C(=O)C4CCOCC4)CC3)nc12 [Example 48, [4-(5-Chloro-4-methyl-benzothiazol-2-yl)-[1,4]diazepan-1-yl]-(tetrahydro-pyran-4-yl)-methanone]",3 nM
20,"O=C(C1CCOCC1)N1CCCN(c2ncc(CN3CCOCC3)s2)CC1 [Example 54, [4-(5-Morpholin-4-ylmethyl-thiazol-2-yl)-[1,4]diazepan-1-yl]-(tetrahydro-pyran-4-yl)-methanone]",14 nM
21,"O=C(C1CCOCC1)N1CCCN(c2nc3cc(C(F)(F)F)ccc3o2)CC1 [Example 5, (Tetrahydro-pyran-4-yl)-[4-(5-trifluoromethyl-benzooxazol-2-yl)-[1,4]diazepan-1-yl]-methanone]",43 nM
22,"O=C(N1CCOCC1)N1CCCN(c2nc3cc(Cl)ccc3o2)CC1 [Example 72, [4-(5-Chloro-benzooxazol-2-yl)-[1,4]diazepan-1-yl]-morpholin-4-yl-methanone]",490 nM
23,"Cc1ccc2nc(N3CCCN(C(=O)C4CCOCC4)CC3)sc2c1 [Example 64, [4-(6-Methyl-benzothiazol-2-yl)-[1,4]diazepan-1-yl]-(tetrahydro-pyran-4-yl)-methanone]",110 nM
24,"O=C(C1CCC(O)CC1)N1CCCN(c2nc3cc(C(F)(F)F)ccc3o2)CC1 (stereo not shown) [Example 32, (4-Hydroxy-cyclohexyl)-[4-(5-trifluoromethyl-benzooxazol-2-yl)-[1,4]diazepan-1-yl]-methanone]",19 nM
25,"O=C(c1ccc(Cl)cc1)N1CCCN(c2nc(-c3ccccc3)ns2)CC1 [Example 11, (4-Chloro-phenyl)-[4-(3-phenyl-[1,2,4]thiadiazol-5-yl)-[1,4]diazepan-1-yl]-methanone]",5 nM
26,"O=C(C1CCC(F)(F)CC1)N1CCCN(c2nc3cc(C(F)(F)F)ccc3o2)CC1 [Example 67, (4,4-Difluoro-cyclohexyl)-[4-(5-trifluoromethyl-benzooxazol-2-yl)-[1,4]diazepan-1-yl]-methanone]",10 nM
27,"CCC(C)c1cc(NC(=O)N2CCCN(c3ncc(C(F)(F)F)cc3Cl)CC2)n(C)n1 (stereo not shown) [Example 68, 4-(3-Chloro-5-trifluoromethyl-pyridin-2-yl)-[1,4]diazepane-1-carboxylic acid (5-sec-butyl-2-methyl-2H-pyrazol-3-yl)-amide]",14 nM
28,"Cc1cc(C)c2sc(N3CCCN(C(=O)C4CCOCC4)CC3)nc2c1 [Example 47, [4-(5,7-Dimethyl-benzothiazol-2-yl)-[1,4]diazepan-1-yl]-(tetrahydro-pyran-4-yl)-methanone]",53 nM
